Read-outs that look alike come from different tables or passages of the source.

In series [1] the target is T1, Clonorchis sinensis omega-class glutathione transferase 2 (CsGSTo2) (Clonorchis sinensis, UniProt G7YE46).
T1 construct: gene CLF_105746; full-length recombinant (223 amino acids), His-tag removed; GenBank KX163089
T1 sequence (G7YE46 1-223): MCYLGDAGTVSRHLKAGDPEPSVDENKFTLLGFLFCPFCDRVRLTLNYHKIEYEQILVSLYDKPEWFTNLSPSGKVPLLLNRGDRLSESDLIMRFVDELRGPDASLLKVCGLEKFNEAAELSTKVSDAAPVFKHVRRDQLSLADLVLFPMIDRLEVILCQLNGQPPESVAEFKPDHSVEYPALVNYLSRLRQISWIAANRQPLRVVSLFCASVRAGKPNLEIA
The series is described as follows: spectrophotometric GST activity of purified enzyme (specific activity). Format: biochemical.

For series [2], the target named is T2, Clonorchis sinensis omega-class glutathione transferase 1 (CsGSTo1) (Clonorchis sinensis, UniProt A0A192IBN1).
T2 construct: full-length recombinant (246 amino acids), His-tag removed; GenBank KX163088
T2 sequence (A0A192IBN1 1-246): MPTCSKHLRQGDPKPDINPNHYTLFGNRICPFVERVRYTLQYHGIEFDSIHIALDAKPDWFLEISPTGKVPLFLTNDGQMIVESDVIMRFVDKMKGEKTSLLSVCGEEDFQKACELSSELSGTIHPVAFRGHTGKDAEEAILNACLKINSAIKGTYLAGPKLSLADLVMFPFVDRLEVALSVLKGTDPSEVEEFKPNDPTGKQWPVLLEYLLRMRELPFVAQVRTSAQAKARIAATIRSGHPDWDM
The description is as above. Format: biochemical.

The target of series [3] is T2, Clonorchis sinensis omega-class glutathione transferase 1 (CsGSTo1). As to the kind of experiment: biochemical. Also on record: DHAR activity inhibition of recombinant CsGSTo, absorbance at 265 nm; Ki from Lineweaver-Burk plots. The protocol: (§1) We determined the inhibition mode of CsGSTos employing SHG and the anthelminthic drug praziquantel (PZQ; Shinpoong, Seoul, Korea). rCsGSTos (each 100 ng) were preincubated with Dulbecco’s PBS supplemented with 10–1,000 μM PZQ or 10–500 nM SHG for 2 min, after which the reaction was initiated by adding 1 mM GSH and 1 mM DHA. The increase in absorbance of the resulting […] was recorded spectrophotometrically at 265 nm. A set of reactions under identical conditions was done for each inhibitor concentration and for controls. To examine the inhibition mode of the specific active sites, rCsGSTos were preincubated with saturating concentrations of GSH (5 mM) for 2 min before conjugating reaction with varying concentrations of DHA (0.01–5 mM). […] All measurements were independently done in triplicate. Data were analyzed by Lineweaver-Burk plots. GST activity was spectrophotometrically determined employing a panel of substrates (Sigma-Aldrich); 1-chloro-2,4-dinitrobenzene (CDNB; pH 6.5, 340 nm), 1,2-dichloro-4-nitrobenzene (DCNB; pH 7.5, 345 nm), [compound left out] (4-NBC; pH 6.5, 310 nm), [compound left out] acetate (4-NPA; pH 7.0, 400 nm), 4-hydroxy nonenal (pH 7.5, 340 nm), cumene hydroperoxide (CHP; pH 6.5, 340 nm) and ethacrynic acid (pH 7.5, 340 nm). The reactions were recorded for 5 min at 25 °C in 100 mM potassium phosphate buffer (pH 7.2, 200 μl) containing each 4 mM substrate and 4 mM GSH. The formation of ascorbate by the glutathione-dependent DHAR was detected in potassium phosphate buffer (50 mM, pH 7.2) supplemented with 1 mM GSH and 0.25 mM dehydroascorbate (DHA) at 265 nm. Thioltransferase activity was assayed using hydroxylethyl disulfide (HEDS, 2 mM) in potassium phosphate buffer (50 mM, pH 7.2) containing 0.2 mM NADPH, 0.5 mM GSH and 0.5 units of glutathione reductase for 2 min at 340 nm. One unit of enzyme activity was defined as the amount of enzyme that catalyzed the formation of one micromole of product per min in the presence of respective substrates. Vmax and appKm were determined by one site saturation assays in ranges of 0.01–5 mM DHA with 5 mM GSH (saturating concentration). We also used variable concentrations of GSH ranging from 0.01–5.0 mM with 5 mM DHA (saturating concentration). Enzyme activity was monitored by changes of absorbance and was converted to specific activity using a molar extinction coefficient (Δε = 5.3). Non-enzymatic reaction was concomitantly monitored and subtracted from the entire reaction rate. All enzyme assays were independently performed in triplicate at 25 °C. Data were analyzed by best fit algorithm in SigmaPlot10.0.1 (Systat, San Diego, CA, USA). […] SHG might act via nucleophilic attack of the active site cysteine on the cysteinyl sulfur of the SHG to form a mixed disulfide with the DHA/GSH moiety with high affinity. […] PZQ might bind to a site other than the active- and glutathione-binding sites and act allosterically. We determined IC50 values of rCsGSTos against SHG and PZQ at a saturating concentration (IC50SC).

The target of series [4] is T1, Clonorchis sinensis omega-class glutathione transferase 2 (CsGSTo2). The series is described as follows: biochemical. As to conditions: for Ki: non-competitive. More on the design: DHAR activity inhibition of recombinant CsGSTo, absorbance at 265 nm; Ki from Lineweaver-Burk plots. The protocol: as §1
Substrate in series [5]: O=C1O[C@H]([C@@H](O)CO)C(=O)C1=O
The series is described as follows: steady-state DHAR kinetics of purified enzyme (apparent Km). Format: biochemical, Clonorchis sinensis. The conditions noted are these: GSH.

Take `O=[N+]([O-])c1ccc(CCl)cc1` [4-NBC, 4-nitrobenzyl chloride]: in series [1], the “Specific activity (μmol/min/mg) / rGSTo2” value worked out at 0.91 ± 0.24 µmol/min/mg. In series [2], the “Specific activity (μmol/min/mg) / rGSTo1” value stood at 1.42 ± 0.09 µmol/min/mg.
As usually defined, the IC50 is the midpoint of a concentration-inhibition curve. What is called Ki is the dissociation constant of the complex between target and ligand, obtained from inhibition or displacement. Take `O=C(C1CCCCC1)N1CC(=O)N2CCc3ccccc3C2C1` (centres unmarked) [PZQ, praziquantel]: the IC50 is 108.4 ± 0.8 µM in series [3] and 116.8 ± 0.7 µM in series [4]. Besides, the Ki in series [3] (ligand binding site (varied GSH), non-competitive) is 46.8 µM; in series [3] (specific active site (varied DHA), non-competitive), 44.1 µM; in series [4] (ligand binding site (varied GSH)), 42.8 µM; in series [4] (specific active site (varied DHA)) it was 38.2 µM.
With `CCCCCCSC[C@H](NC(=O)CC[C@H](N)C(=O)O)C(=O)NCC(=O)O` [SHG, S-hexylglutathione], in series [3], the Ki amounted to 0.00063 µM.

B1: Clonorchis sinensis omega-class glutathione transferase 1 (CsGSTo1) (Clonorchis sinensis) (protein)
chain: MPTCSKHLRQGDPKPDINPNHYTLFGNRICPFVERVRYTLQYHGIEFDSIHIALDAKPDWFLEISPTGKVPLFLTNDGQMIVESDVIMRFVDKMKGEKTSLLSVCGEEDFQKACELSSELSGTIHPVAFRGHTGKDAEEAILNACLKINSAIKGTYLAGPKLSLADLVMFPFVDRLEVALSVLKGTDPSEVEEFKPNDPTGKQWPVLLEYLLRMRELPFVAQVRTSAQAKARIAATIRSGHPDWDM
notes: full-length recombinant (246 amino acids), His-tag removed; GenBank KX163088
As usually defined, the Km is the concentration of substrate that gives half-maximal velocity. As usually defined, the Vmax is the rate approached at saturating substrate. The term kcat denotes the number of substrate molecules converted per active site and unit of time at saturation. As usually defined, the kcat/Km is the turnover number divided by the Michaelis constant. On to B1, for which, in series [5], the Km stood at 210 ± 20 µM, the Vmax was found to be 1.16 ± 0.02 µmol/min/mg, the turnover number (kcat) is 0.48 s⁻¹ and the kcat/Km came out at 2290 M⁻¹ s⁻¹.

B2: Clonorchis sinensis omega-class glutathione transferase 2 (CsGSTo2) (Clonorchis sinensis) (protein)
chain: MCYLGDAGTVSRHLKAGDPEPSVDENKFTLLGFLFCPFCDRVRLTLNYHKIEYEQILVSLYDKPEWFTNLSPSGKVPLLLNRGDRLSESDLIMRFVDELRGPDASLLKVCGLEKFNEAAELSTKVSDAAPVFKHVRRDQLSLADLVLFPMIDRLEVILCQLNGQPPESVAEFKPDHSVEYPALVNYLSRLRQISWIAANRQPLRVVSLFCASVRAGKPNLEIA
notes: full-length recombinant (223 amino acids), His-tag removed; GenBank KX163089
As to B2, in series [5], the Km worked out at 170 ± 20 µM, the Vmax came to 1.08 ± 0.02 µmol/min/mg, the kcat turned out to be 0.43 s⁻¹ and the specificity constant (kcat/Km) stood at 2530 M⁻¹ s⁻¹.

The values are drawn from paper PMC4906895, “Clonorchis sinensis omega-class glutathione transferases play major roles in the protection of the reproductive system during maturation and the response to oxidative stress” (Parasites & Vectors, 2016).
